Data on eight molecules can be found in US6737383B1, “Herbicidal oxadiazolidines” (priority 1999, dated 2004).

SMILES strings stand for the structures.

One test has as its system purple nutsedge. As to the kind of experiment: Test B pre/postemergence purple nutsedge. The class given is in vivo, Cyperus rotundus. A digest of the protocol: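 Herbicidal effect was estimated by eye on a ten-point control scale after plants spent twelve to sixteen days in a greenhouse following soil or foliar treatment. Foliar sprays targeted plants at one to four leaves; all doses were formulated in a non-phytotoxic solvent with surfactant.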

The next test relates to duck salad. In words: Test B flood test duck salad. Format: in vivo, Heteranthera limosa. The conditions noted are these: for Plant response rating, Ducksalad (0 to 10 scale, 0 is no effect, 10 is complete control) / Ducksalad plant response rating (0 to 10 scale, 0 is no effect, 10 is complete control): visual evaluation after twelve to sixteen days; for Ducksalad plant response rating (0 to 10 scale, 0 is no effect, 10 is complete control): under heading Pre-emergence. Summed up: (§1)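 Read-out is a visual response score from 0 (no effect) to 10 (complete control), assigned by comparison with untreated controls. Treatment was applied at the 2-leaf stage, and plants stayed in the greenhouse for twelve to sixteen days before scoring.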

For the next test, the system named is bamyardgrass. As to the kind of experiment: Test B flood test barnyardgrass. To be noted: for Plant response rating, Barnyardgrass (0 to 10 scale, 0 is no effect, 10 is complete control) / Barnyardgrass plant response rating (0 to 10 scale, 0 is no effect, 10 is complete control): visual evaluation after twelve to sixteen days; for Barnyardgrass plant response rating (0 to 10 scale, 0 is no effect, 10 is complete control): under heading Pre-emergence. The class given is in vivo, Echinochloa crus-galli. Summed up:
as §1

Setting [1] is: Postemergence, Rate 250 g/ha, scale 0 to 10, 0 is no effect, 10 is complete control.
Setting [2] is: Postemergence, Rate 500 g/ha, scale of 0 to 10 where 0 is no effect and 10 is complete control.
Where [3] appears, read: Preemergence, Rate 62 g/ha, scale 0 to 10 (0 no effect, 10 complete control).
Where [4] appears, read: Preemergence, Rate 125 g/ha, scale of 0 to 10 where 0 is no effect and 10 is complete control.
[5] abbreviates: Preemergence, Rate 250 g/ha, scale 0 to 10, 0 is no effect, 10 is complete control.
Where [6] appears, read: Preemergence, Rate 500 g/ha, scale 0 to 10, 0 is no effect, 10 is complete control.
The mark [7] stands for this setting: Rate 62 g/ha, Postemergence, scale of 0 to 10 where 0 is no effect and 10 is complete control.
Where [8] appears, read: Postemergence (flood test), Rate 125 g/ha, scale 0 to 10, 0 is no effect, 10 is complete control.
Where [9] appears, read: Postemergence section (flood test species), Rate 500 g/ha, scale of 0 to 10 where 0 is no effect and 10 is complete control.
The mark [10] stands for this setting: Rate 62 g/ha, Postemergence (flood test species), scale of 0 to 10 where 0 is no effect and 10 is complete control.
The mark [11] stands for this setting: flood test species, listed under Postemergence, Rate 250 g/ha, scale 0 to 10, 0 is no effect, 10 is complete control.
Where [12] appears, read: Postemergence, Rate 250 g/ha, scale 0 to 10.
Setting [13] is: Rate 125 g/ha, Postemergence, scale 0 to 10, 0 is no effect, 10 is complete control.
Setting [14] is: Postemergence block (flood test species), Rate 250 g/ha, scale 0 to 10.
The mark [15] stands for this setting: Rate 125 g/ha, Postemergence section (flood test species), scale 0 to 10, 0 is no effect, 10 is complete control.
Setting [16] is: Preemergence, Rate 62 g/ha, scale of 0 to 10 where 0 is no effect and 10 is complete control.
Where [17] appears, read: Rate 62 g/ha, Postemergence, scale 0 to 10 (0 no effect, 10 complete control).
Where [18] appears, read: Rate 62 g/ha, flood test species, Pre-emergence.
[19] abbreviates: Rate 125 g/ha, flood test species.
The mark [20] stands for this setting: Rate 250 g/ha, Pre-emergence (flood test species), scale 0 to 10, 0 is no effect, 10 is complete control.
Where [21] appears, read: Rate 500 g/ha, Pre-emergence, flood test species, scale 0 to 10 (0 no effect, 10 complete control).
Where [22] appears, read: Pre-emergence, Rate 1000 g/ha, scale 0 to 10 (0 no effect, 10 complete control).
[23] abbreviates: Rate 500 g/ha, Pre-emergence section of Table B, 0 to 10 scale (0 no effect, 10 complete control).

For `CCOC(=O)C=C(Cn1c(=O)on(C(=O)N(c2ccc(F)cc2)C(C)C)c1=O)OCC` [Compound 396], the “Plant response rating, Nutsedge” value in the test on purple nutsedge (setting [1]), in the test on purple nutsedge (setting [3]) and with purple nutsedge (setting [4]) was 0 in each case. Besides, the “Nutsedge plant response rating” value with purple nutsedge (setting [2]), with purple nutsedge (setting [5]), with purple nutsedge (setting [6]) and in the test with purple nutsedge (setting [7]) was 0 each time. For the same molecule, the “Plant response rating, Ducksalad” value with duck salad (setting [8]) and in the test on duck salad (setting [11]) was 0 throughout. In addition, the “Ducksalad plant response rating” value in the test with duck salad (setting [9]) and in the test on duck salad (setting [10]) was 0 throughout. In addition, the “Plant response rating, Barnyardgrass” value in the test with bamyardgrass (setting [8]) and in the test on bamyardgrass (setting [11]) was 0 throughout. Moreover, the “Barnyardgrass plant response rating” value in the test on bamyardgrass (setting [9]) and with bamyardgrass (setting [10]) was 0 throughout.

For `CC(=O)C(C)n1c(=O)on(C(=O)N(c2ccc(F)cc2)C(C)C)c1=O` (centres unmarked) [Compound 400], the “Plant response rating, Nutsedge” value in the test with purple nutsedge (setting [1]), in the test on purple nutsedge (setting [3]) and with purple nutsedge (setting [4]) was 0 throughout. For the same molecule, the “Nutsedge plant response rating” value with purple nutsedge (setting [2]), in the test on purple nutsedge (setting [5]), in the test on purple nutsedge (setting [6]) and in the test with purple nutsedge (setting [7]) was 0 each time. The “Plant response rating, Ducksalad” value in the test with duck salad (setting [8]) and with duck salad (setting [11]) was 0 in each case. Besides, the “Ducksalad plant response rating” value with duck salad (setting [9]) and with duck salad (setting [10]) was 0 each time. In addition, the “Plant response rating, Barnyardgrass” value in the test on bamyardgrass (setting [8]) and in the test with bamyardgrass (setting [11]) was 0 each time. Besides, the “Barnyardgrass plant response rating” value in the test with bamyardgrass (setting [9]) and in the test with bamyardgrass (setting [10]) was 0 throughout.

Regarding `CC(C)N(C(=O)n1oc(=O)n(C(C)C#N)c1=O)c1ccc(F)cc1F` (centres unmarked) [Compound 432], the “Nutsedge plant response rating” value with purple nutsedge (setting [12]), with purple nutsedge (setting [2]), in the test on purple nutsedge (setting [5]), in the test with purple nutsedge (setting [6]) and in the test with purple nutsedge (setting [13]) was 0 throughout. Also, the “Plant response rating, Nutsedge” value with purple nutsedge (setting [3]) and with purple nutsedge (setting [4]) was 0 in each case. For the same molecule, the “Ducksalad plant response rating” value in the test on duck salad (setting [14]), in the test with duck salad (setting [9]), in the test on duck salad (setting [10]) and in the test with duck salad (setting [15]) was 0 each time. For the same molecule, the “Barnyardgrass plant response rating” value in the test on bamyardgrass (setting [14]), in the test with bamyardgrass (setting [9]), with bamyardgrass (setting [10]) and with bamyardgrass (setting [15]) was 0 in each case.

Turning to `COC(C)n1c(=O)on(C(=O)N(c2ccccc2)C(C)C)c1=O` (centres unmarked) [Compound 441], the “Nutsedge plant response rating” value in the test on purple nutsedge (setting [12]), in the test with purple nutsedge (setting [2]), in the test with purple nutsedge (setting [5]), in the test on purple nutsedge (setting [6]), with purple nutsedge (setting [17]) and in the test with purple nutsedge (setting [13]) was 0 each time. Moreover, the “Plant response rating, Nutsedge” value in the test with purple nutsedge (setting [16]) and with purple nutsedge (setting [4]) was 0 in each case. In the test on duck salad (setting [18]), the “Plant response rating, Ducksalad (0 to 10 scale, 0 is no effect, 10 is complete control)” value is reported as 0. Besides, the “Ducksalad plant response rating (0 to 10 scale, 0 is no effect, 10 is complete control)” value in the test with duck salad (setting [19]) is 0. Besides, the “Ducksalad plant response rating” value in the test on duck salad (setting [20]) and in the test with duck salad (setting [21]) was 0 each time. The “Plant response rating, Barnyardgrass (0 to 10 scale, 0 is no effect, 10 is complete control)” value in the test on bamyardgrass (setting [18]) was determined as 0. Also, the “Barnyardgrass plant response rating (0 to 10 scale, 0 is no effect, 10 is complete control)” value with bamyardgrass (setting [19]) came to 0. Further, the “Barnyardgrass plant response rating” value in the test on bamyardgrass (setting [20]) and with bamyardgrass (setting [21]) was 0 in each case.

On to `CC(C)N(C(=O)n1oc(=O)n(CCS(C)(=O)=O)c1=O)c1ccc(F)cc1` [Compound 453], for which the “Nutsedge plant response rating” value in the test with purple nutsedge (setting [12]), in the test on purple nutsedge (setting [5]), in the test on purple nutsedge (setting [17]) and in the test with purple nutsedge (setting [13]) was 0 in each case. In addition, the “Plant response rating, Nutsedge” value in the test with purple nutsedge (setting [16]) and in the test with purple nutsedge (setting [4]) was 0 each time. The “Plant response rating, Ducksalad (0 to 10 scale, 0 is no effect, 10 is complete control)” value in the test on duck salad (setting [18]) is listed as 0. Besides, the “Ducksalad plant response rating (0 to 10 scale, 0 is no effect, 10 is complete control)” value in the test on duck salad (setting [19]) was 0. For the same molecule, the “Ducksalad plant response rating” value in the test with duck salad (setting [20]) and in the test with duck salad (setting [21]) was 0 in each case. Moreover, the “Plant response rating, Barnyardgrass (0 to 10 scale, 0 is no effect, 10 is complete control)” value in the test with bamyardgrass (setting [18]) came to 0. In addition, in the test on bamyardgrass (setting [19]), the “Barnyardgrass plant response rating (0 to 10 scale, 0 is no effect, 10 is complete control)” value worked out at 0. The “Barnyardgrass plant response rating” value in the test with bamyardgrass (setting [20]) and in the test on bamyardgrass (setting [21]) was 0 each time.

For `C=CC(CC)n1c(=O)on(C(=O)N(c2ccccc2)C(C)C)c1=O` (centres unmarked) [Compound 455], the “Nutsedge plant response rating” value in the test with purple nutsedge (setting [12]) worked out at 0; in the test with purple nutsedge (setting [5]), 0; in the test with purple nutsedge (setting [6]), 3; in the test with purple nutsedge (setting [17]), 0; with purple nutsedge (setting [13]) it was 0. The “Plant response rating, Nutsedge” value with purple nutsedge (setting [16]) and with purple nutsedge (setting [4]) was 0 in each case. In addition, the “Plant response rating, Ducksalad (0 to 10 scale, 0 is no effect, 10 is complete control)” value in the test on duck salad (setting [18]) stood at 0. Further, the “Ducksalad plant response rating (0 to 10 scale, 0 is no effect, 10 is complete control)” value with duck salad (setting [19]) is reported as 0. In addition, the “Ducksalad plant response rating” value with duck salad (setting [20]) and with duck salad (setting [21]) was 0 each time. In the test on bamyardgrass (setting [18]), the “Plant response rating, Barnyardgrass (0 to 10 scale, 0 is no effect, 10 is complete control)” value turned out to be 0. Moreover, in the test on bamyardgrass (setting [19]), the “Barnyardgrass plant response rating (0 to 10 scale, 0 is no effect, 10 is complete control)” value is recorded as 0. The “Barnyardgrass plant response rating” value in the test on bamyardgrass (setting [20]) and with bamyardgrass (setting [21]) was 0 in each case.

With `CC(C)N(C(=O)n1oc(=O)n(C(CF)CF)c1=O)c1ccc(Cl)cc1` [Compound 468], the “Nutsedge plant response rating” value in the test on purple nutsedge (setting [12]), in the test with purple nutsedge (setting [5]), with purple nutsedge (setting [6]), with purple nutsedge (setting [17]) and in the test on purple nutsedge (setting [13]) was 0 throughout. Moreover, the “Plant response rating, Nutsedge” value in the test with purple nutsedge (setting [16]) and in the test with purple nutsedge (setting [4]) was 0 in each case. Also, the “Plant response rating, Ducksalad (0 to 10 scale, 0 is no effect, 10 is complete control)” value with duck salad (setting [18]) stood at 0. For the same molecule, the “Ducksalad plant response rating (0 to 10 scale, 0 is no effect, 10 is complete control)” value in the test with duck salad (setting [19]) amounted to 0. The “Ducksalad plant response rating” value in the test with duck salad (setting [20]) and in the test on duck salad (setting [21]) was 0 in each case. Further, in the test with bamyardgrass (setting [18]), the “Plant response rating, Barnyardgrass (0 to 10 scale, 0 is no effect, 10 is complete control)” value amounted to 0. The “Barnyardgrass plant response rating (0 to 10 scale, 0 is no effect, 10 is complete control)” value in the test with bamyardgrass (setting [19]) is 0. Also, the “Barnyardgrass plant response rating” value with bamyardgrass (setting [20]) and in the test on bamyardgrass (setting [21]) was 0 each time.

For `COC(=O)C(C)n1c(=O)on(C(=O)N(c2ccc(Cl)cc2)C(C)C)c1=O` (centres unmarked) [Compound 623], the “Plant response rating, Nutsedge” value is on record as 0 with purple nutsedge (Postemergence, Rate 125 g/ha, scale of 0 to 10 where 0 is no effect and 10 is complete control); 0 in the test on purple nutsedge (Preemergence, Rate 250 g/ha, scale 0 to 10 (0 no effect, 10 complete control)); 0 in the test on purple nutsedge (Preemergence, Rate 500 g/ha, scale of 0 to 10 where 0 is no effect and 10 is complete control); 0 in the test with purple nutsedge (Rate 1000 g/ha, Preemergence, scale 0 to 10 (0 no effect, 10 complete control)). Moreover, the “Nutsedge plant response rating” value stood at 0 in the test with purple nutsedge (Postemergence, Rate 250 g/ha, scale of 0 to 10, 0 is no effect, 10 is complete control) and 0 with purple nutsedge (setting [4]). The “Ducksalad plant response rating” value in the test on duck salad (setting [22]), in the test on duck salad (setting [20]) and in the test with duck salad (setting [23]) was 0 each time. Further, the “Ducksalad plant response rating (0 to 10 scale, 0 is no effect, 10 is complete control)” value in the test on duck salad (setting [19]) worked out at 0. Besides, the “Barnyardgrass plant response rating” value in the test on bamyardgrass (setting [22]), with bamyardgrass (setting [20]) and in the test on bamyardgrass (setting [23]) was 0 throughout. Moreover, the “Barnyardgrass plant response rating (0 to 10 scale, 0 is no effect, 10 is complete control)” value with bamyardgrass (setting [19]) stood at 0.
